Assay: xn = mol fraction of the nth substance listed
Conditions: 100 kPa, Liquid; for viscosity: Concentric cylinders viscometry; for mass density: Vibrating tube method

CCOC(=O)CCC(=O)OCC [diethyl butanedioate] + CC(C)CO
Conditions	mass density [kg/m3]	viscosity [mPa·s]
288.15 K, x1 = 0.0999	844.65	3.284
288.15 K, x1 = 0.2	878.53	2.763
288.15 K, x1 = 0.3001	908.28	2.542
288.15 K, x1 = 0.4	934.67	2.473
288.15 K, x1 = 0.4999	958.02	2.477
288.15 K, x1 = 0.5999	978.97	2.546
288.15 K, x1 = 0.6999	997.81	2.625
288.15 K, x1 = 0.8	1014.88	2.774
288.15 K, x1 = 0.9	1030.48	2.962
288.15 K, x1 = 1	1044.83	3.195
293.15 K, x1 = 0.0999	840.5	2.816
293.15 K, x1 = 0.2	874.13	2.403
293.15 K, x1 = 0.3001	903.71	2.23
293.15 K, x1 = 0.4	929.94	2.177
293.15 K, x1 = 0.4999	953.16	2.186
293.15 K, x1 = 0.5999	974.02	2.249
293.15 K, x1 = 0.6999	992.78	2.32
293.15 K, x1 = 0.8	1009.79	2.45
293.15 K, x1 = 0.9	1025.33	2.611
293.15 K, x1 = 1	1039.63	2.807
298.15 K, x1 = 0.0999	836.33	2.443
298.15 K, x1 = 0.2	869.73	2.108
298.15 K, x1 = 0.3001	899.12	1.973
298.15 K, x1 = 0.4	925.2	1.931
298.15 K, x1 = 0.4999	948.31	1.947
298.15 K, x1 = 0.5999	969.07	2.004
298.15 K, x1 = 0.6999	987.75	2.073
298.15 K, x1 = 0.8	1004.7	2.184
298.15 K, x1 = 0.9	1020.18	2.322
298.15 K, x1 = 1	1034.44	2.491
303.15 K, x1 = 0.0999	832.13	2.135
303.15 K, x1 = 0.2	865.31	1.866
303.15 K, x1 = 0.3001	894.51	1.756
303.15 K, x1 = 0.4	920.45	1.73
303.15 K, x1 = 0.4999	943.44	1.747
303.15 K, x1 = 0.5999	964.11	1.802
303.15 K, x1 = 0.6999	982.72	1.864
303.15 K, x1 = 0.8	999.6	1.964
303.15 K, x1 = 0.9	1015.04	2.084
303.15 K, x1 = 1	1029.25	2.229
308.15 K, x1 = 0.0999	827.9	1.875
308.15 K, x1 = 0.2	860.85	1.659
308.15 K, x1 = 0.3001	889.88	1.574
308.15 K, x1 = 0.4	915.68	1.557
308.15 K, x1 = 0.4999	938.56	1.576
308.15 K, x1 = 0.5999	959.14	1.629
308.15 K, x1 = 0.6999	977.68	1.686
308.15 K, x1 = 0.8	994.51	1.775
308.15 K, x1 = 0.9	1009.9	1.882
308.15 K, x1 = 1	1024.08	2.008
313.15 K, x1 = 0.0999	823.63	1.657
313.15 K, x1 = 0.2	856.36	1.484
313.15 K, x1 = 0.3001	885.22	1.418
313.15 K, x1 = 0.4	910.89	1.409
313.15 K, x1 = 0.4999	933.67	1.43
313.15 K, x1 = 0.5999	954.16	1.48
313.15 K, x1 = 0.6999	972.64	1.534
313.15 K, x1 = 0.8	989.42	1.614
313.15 K, x1 = 0.9	1004.76	1.71
313.15 K, x1 = 1	1018.9	1.821
318.15 K, x1 = 0.0999	819.31	1.471
318.15 K, x1 = 0.2	851.84	1.334
318.15 K, x1 = 0.3001	880.53	1.283
318.15 K, x1 = 0.4	906.08	1.281
318.15 K, x1 = 0.4999	928.76	1.304
318.15 K, x1 = 0.5999	949.18	1.352
318.15 K, x1 = 0.6999	967.59	1.403
318.15 K, x1 = 0.8	984.32	1.476
318.15 K, x1 = 0.9	999.62	1.562
318.15 K, x1 = 1	1013.72	1.66
323.15 K, x1 = 0.0999	814.95	1.324
323.15 K, x1 = 0.2	847.28	1.218
323.15 K, x1 = 0.3001	875.82	1.175
323.15 K, x1 = 0.4	901.24	1.18
323.15 K, x1 = 0.4999	923.83	1.201
323.15 K, x1 = 0.5999	944.18	1.249
323.15 K, x1 = 0.6999	962.54	1.3
323.15 K, x1 = 0.8	979.22	1.366
323.15 K, x1 = 0.9	994.48	1.438
323.15 K, x1 = 1	1008.55	1.523

— the NIST ThermoML archive (doi:10.1016/j.jct.2016.09.030)
